Laboratory results from patent publication US11434289B2, “Anti-GPR20 antibody and anti-GPR20 antibody-drug conjugate” (DAIICHI SANKYO COMPANY, LIMITED, priority 2017, dated 2022).

Key:
[1] = tested on: human gastrointestinal stromal tumor cell line GIST430/654; test: Antitumor effect and combined use with sunitinib in GIST430/654-transplanted nude mouse models (imatinib resistance mutation V654A in KIT); assay type: in vivo, BALB/c nude mice; details: orally once a day; imatinib 150, sunitinib 40 mg/kg; FIG. 37
GIST074 = test: Antitumor effect in subcutaneously GIST074-transplanted nude mouse models (regorafenib-unresponsive patient tumor); assay type: in vivo, BALB/c nude mice; details: orally once a day; imatinib 90, sunitinib 30, regorafenib 4 mg/kg; FIG. 36
Procedure: The antitumor effects of the antibody-drug conjugates were evaluated using animal models derived from immunodeficient mice by the transplantation of human gastrointestinal stromal tumor-derived cells. Five- to 6-week-old female BALB/c nude mice (CAnN.Cg-Foxnlnu/CrlCrlj, Charles River Laboratories Japan Inc.) were acclimatized for 4 to 7 days under SPF conditions before use in the experiment. The mice were fed with a sterilized solid diet (FR-2, Funabashi Farms Co., Ltd) and given sterilized tap water (which had been prepared by adding a 5 to 15 ppm sodium hypochlorite solution to tap water). The longest diameter and the shortest diameter of the transplanted tumor were measured once or twice a week using electronic digital calipers (CD-15CX, Mitutoyo Corp.), and the volume of the tumor was then calculated according to the following equation. Tumor volume (mm^3)=½×Longest diameter (mm)×[Shortest diameter (mm)]^2
[…] ABS buffer was administered in the same manner as above to a control group (vehicle group). Five or six mice per group were used in the experiment. […]

Row | Structure (SMILES) | tumor growth [1] | tumor growth (GIST074)
1 | Cc1ccc(NC(=O)c2ccc(CN3CCN(C)CC3)cc2)cc1Nc1nccc(-c2cccnc2)n1 [imatinib] | did not suppress tumor growth | tumor growth was not completely suppressed
2 | CNC(=O)c1cc(Oc2ccc(NC(=O)Nc3ccc(Cl)c(C(F)(F)F)c3)c(F)c2)ccn1 [regorafenib] |  | tumor growth was not completely suppressed
